Reference: PMC7665192, “A natriuretic peptide from Arabidopsis thaliana (AtPNP-A) can modulate catalase 2 activity” (Scientific Reports, 2020)
Positions of bridges follow the written chain, without caps; N, C: chain ends. No end group written: not given here.

How the values were obtained:
CAT2 transcript = settings: exogenous application; cited from earlier work
Text: (§1) It is also conceivable that modulation of CAT2 activity by AtPNP-A may not only have implications for plant biotic stress tolerance but may also result in changes in responses to abiotic stress. Activity of CAT2 is required for decomposition of photorespiration-derived H2O2 preventing redox perturbation under ambient growth conditions[59] while CAT2 deficiency causes a defective photorespiration phenotype including suppressed growth[58],[59] and accumulation of H2O2 in leaves. During senescence suppression of CAT2 function, mediated by G-BOX BINDING FACTOR1 (GBF1)[76], decreases CAT2 activ ...

[1] = test system: AtPNP-A-deficient seedlings; settings: cited from earlier work
Text: as §1

plant pathogen = settings: exogenous H2O2; cited from earlier work
guard cell = settings: cited from earlier work
Text: A PNP_CAT interaction in plant responses to infecting pathogens is not surprising. CATs commonly function to down-regulate ROS during ABA-induced stomatal closure, and ABA-induced stomatal closure can be inhibited by removal of H2O2 via CAT2[73],[74]. […] Therefore, it is tempting to speculate that AtPNP-A modulates the effect of ABA on stomatal aperture through the interaction w ...

cGMP = settings: cited from earlier work
Text: Similarly, identification of novel receptors targeted by an increasing number of peptidic plant hormones discovered in the last few decades[8],[9] is anticipated. One of those, the plant natriuretic peptides (PNPs), are a group of systemically mobile signals[10] that have a role in the maintenance of salt and water balance[11],[12]. An A. thaliana PNP, termed AtPNP-A (At2g18660; Q9ZV52), has been implicated in several physiological processes ranging from the regulation of stomatal aperture, osmoticum-dependent volume changes[13],[14] and modulation of developmental stage- and tissue-specif ... || A PNP_CAT interaction in plant responses to infecting pathogens is not surprising. CATs commonly function to down-regulate ROS during ABA-induced stomatal closure, and ABA-induced stomatal closure can be inhibited by removal of H2O2 via CAT2[73],[74]. […] Therefore, it is tempting to speculate that AtPNP-A modulates the effect of ABA on stomatal aperture through the interaction w ...

[2] = molecular target: T1, recombinant catalase 2 (rCAT2), N-terminally 6xHis-tagged (A. thaliana, UniProt P25819 1-492); assay: SPR; Biacore T100, 20 °C; His-tagged rCAT2 immobilised on the NTA sensor chip (app. 4,500 RU), peptides injected at the same concentration; unmodified reference surface; settings: both partners purified
T1 construct: catalase 2 (CAT2), A. thaliana; held on the NTA chip by its His tag; also called CAT2 recombinant protein; His-tagged rCAT2; source: E. coli BL21 (DE3) One Shot, purified (Ni-NTA beads, HisTrap HP column); not shown: 6xHis, N-terminal, kept
T1 sequence (looked up): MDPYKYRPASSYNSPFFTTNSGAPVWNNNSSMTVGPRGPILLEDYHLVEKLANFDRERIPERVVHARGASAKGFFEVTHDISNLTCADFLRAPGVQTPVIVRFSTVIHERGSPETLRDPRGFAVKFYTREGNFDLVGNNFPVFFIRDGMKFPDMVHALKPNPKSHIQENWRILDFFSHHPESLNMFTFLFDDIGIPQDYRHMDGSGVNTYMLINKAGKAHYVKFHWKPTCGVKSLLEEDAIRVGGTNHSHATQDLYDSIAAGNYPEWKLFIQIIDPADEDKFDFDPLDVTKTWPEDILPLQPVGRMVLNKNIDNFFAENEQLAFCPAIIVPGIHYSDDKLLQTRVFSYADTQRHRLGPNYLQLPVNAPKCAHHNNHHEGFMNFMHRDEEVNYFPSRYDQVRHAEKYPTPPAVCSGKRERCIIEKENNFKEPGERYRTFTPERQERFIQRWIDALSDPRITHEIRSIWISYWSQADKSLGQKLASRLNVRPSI

[3] = molecular target: T2, bovine liver CAT (C-40; Sigma) (bovine, UniProt P00432 1-527); assay: SPR; Biacore T100, 20 °C, flow 100 μL/min; bovine liver CAT amine-coupled to Series S CM5 chip, pAtPNP-A at 3.78 μM and consecutive twofold dilutions (11 injections); regeneration with glycine pH 2.0; kinetic analysis; settings: both partners purified
T2 construct: catalase from bovine liver; also called bovine CAT; bovine liver catalase; source: bought: Sigma (C-40), bovine liver
T2 sequence (looked up): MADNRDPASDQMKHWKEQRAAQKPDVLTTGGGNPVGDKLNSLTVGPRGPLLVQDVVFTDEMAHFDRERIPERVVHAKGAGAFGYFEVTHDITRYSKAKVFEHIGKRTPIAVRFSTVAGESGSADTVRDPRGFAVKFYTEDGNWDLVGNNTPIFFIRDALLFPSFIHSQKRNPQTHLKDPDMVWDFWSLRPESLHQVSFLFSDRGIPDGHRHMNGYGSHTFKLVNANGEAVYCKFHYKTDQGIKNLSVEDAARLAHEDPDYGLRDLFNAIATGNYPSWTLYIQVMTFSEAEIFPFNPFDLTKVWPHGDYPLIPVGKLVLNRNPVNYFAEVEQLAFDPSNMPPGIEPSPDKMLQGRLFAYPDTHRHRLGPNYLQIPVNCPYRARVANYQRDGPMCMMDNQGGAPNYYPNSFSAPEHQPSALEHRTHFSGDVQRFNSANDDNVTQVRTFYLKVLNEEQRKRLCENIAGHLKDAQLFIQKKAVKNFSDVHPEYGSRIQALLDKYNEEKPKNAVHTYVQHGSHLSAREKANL

In the case of `C[n+]1ccc(-c2cc[n+](C)cc2)cc1` [methyl viologen], the CAT2 transcript (CAT2 transcript) is given as “Increases in CAT2 transcript” and the “Chlorosis in AtPNP-A-deficient seedlings” value [1] is given as “extensive chlorosis”.

In the case of `OO` [H2O2, hydrogen peroxide], the Plant pathogen resistance (plant pathogen) is listed as “enhances plant pathogen resistance” and the CAT2 transcript (CAT2 transcript) is listed as “Increases in CAT2 transcript”.

For `CC1=CC(=O)CC(C)(C)[C@@]1(O)/C=C/C(C)=C\C(=O)O` [ABA, abscisic acid, reference compound], the “Effect of ABA on AtPNP-A-dependent guard cell volume increases” value (guard cell) is listed as “no effect” and the “Effect of ABA on AtPNP-A-dependent cGMP increases” value (cGMP) is listed as “no effect”.

B1: pAtPNP-A, synthetic peptide with the active region of AtPNP-A, as used in SPR, ITC and the catalase activity assay (peptide, UniProt Q9ZV52 33-66, looked up)
peptide: YDPPYTRSACYGTQRETLVVGVKNNLWQNGRACG
modifications: disulfide 10-33 (inferred); not fully specified
notes: AtPNP-A (plant natriuretic peptide A), A. thaliana, active region, amino acids 33-66; peptides were made with or without a C-terminal biotin tag; also called biologically active fragment of AtPNP-A; source: synthetic peptide (GenScript, purity > 95%)
With B1 the binding result [2] was “binds” and the Kd [3] was 86 nM.
